From patent US4435591A, “Compound with analgesic, antiinflammatory and antipyretic activity, and pharmaceutical compositions therefrom” (Ausonia Farmaceutici s.r.l., priority 1982, dated 1984)
Several values for one entry are separate records, joined by “and”; a condition that tells them apart may be missing. Equal entries are not always repeated. Where two headings read alike, the source gives them in different places.

Key:
[1] = tested on: gastric mucosa; set-up: species or system rats; conditions: rat, in vivo, po
[2] = tested on: Arthritis caused by the adjuvant of Freund in rats; experiment: Arthritis caused by the adjuvant in rats (Winter and Nuss); format: in vivo
Source text: For the evaluation for the efficiency of the substance the following parameters have been considered: diameter of articulations, volume of the hind paws, hematological and hematochemical examination, weight of the suprarenal glands and thymus.

[3] = tested on: Edema caused by kaolin in rats; experiment: Edema caused by kaolin in rats (Coulon et al); conditions: 5 consecutive days
[4] = tested on: subplantar edema caused by carrageenan in rats; experiment: Edema caused by carrageenan in rats (Winter et al); format: in vivo; conditions: oral, AFP 802 187 mg/Kg, ibuprofen 100 mg/Kg
Experimental: The anti-inflammatory activity has been investigated by a series of tests using edema caused by carrageenan and kaolin pleuritis caused by carrageenan and arthritis caused by an adjuvant.
The plyethysmographic observations of the edema have been carried out every hour for a period of 7 hours after the induction of the edema.

[5] = Organ to plasma ratio of ibuprofen concentrations in rats; format: in vivo; conditions: vs administration of ibuprofen
Experimental: (§1) AFP 802 has been administered orally in the dose of 200 mg/kg in rats. […] The animals are killed in groups of four after the following time periods; 15 minutes, 30 minutes, 1 hour, 2 hours, 4 hours, 6 hours and 24 hours.

[6] = tested on: Test of Randall and Selitto, in rats; experiment: Test of Randall and Selitto in rats; format: in vivo
Experimental: The analgesic activity of AFP 802 has been studied by means of the writhing test with phenylquinone in mice and by means of the test of Randall and Selitto in rats. Test of Randall and Selitto in rats. This test was carried out according to the method of L. Randall and J. Selitto reported in Arch. Int. Pharmacodyn., 1957 III, 409. […] The variations of pressure tolerated without variation in pain have been determined each hour, for 5 consecutive hours and the results are reported in Table 10.

[7] = tested on: Writhing caused by phenylquinone in mice; experiment: Writhing caused by phenylquinone in mice (Siegmung et al); format: in vivo
Source text: The analgesic activity of AFP 802 has been studied by means of the writhing test with phenylquinone in mice and by means of the test of Randall and Selitto in rats.

[8] = tested on: Pleuritis caused by carrageenan in rats; experiment: Pleuritis caused by carrageenan in rats (Vinegar et al); format: in vivo; conditions: for Number of leucocytes × 1,000 / Volume of exudate in cc / Number of leucocytes, % inhibition with respect to the controls / Volume of exudate, % inhibition with respect to the controls: 100 mg/Kg oral
[9] = Pharmacokinetics, plasma levels after oral administration in rats; format: in vivo
Experimental: as §1

[10] = in vivo; conditions: rat, rats, read-out: DL50 (limit of error 95%)
[11] = in vivo; format: in vivo; conditions: mouse, in vivo, mice, read-out: DL50 (limit of error 95%)
[12] = tested on: mice; experiment: in vivo; format: in vivo; conditions: mice and rats, particularly by the oral route
[13] = tested on: Hyperthermia caused by yeast; experiment: Antipyretic activity, hyperthermia caused by yeast in rats (Boissier and Simon); format: in vivo
Source text: The experiment has been carried out in rats in which the body temperature has been increased by means of yeast by the method according to J. R. Boissier and P. Simon (Therapie, 1962, 17, 1225). […] It is, however, necessary to keep in mind the difference in molecular weight between the two substances under examination.

[14] = both paws, area under the curve of the increases, 100 mg/Kg/die oral

Structure (SMILES): COc1cc(C(=O)OCC(C)c2ccc(CC(C)C)cc2)cc(OC)c1OC (centres unmarked) [AFP 802, 2-(4-isobutylphenyl)1-propanol 3,4,5-trimethoxybenzoate]
- effects of gastric lesion (in words) [1]: almost negligible
- ALBUMIN (%) ([2]; 100 mg/Kg/die oral): 70.3 ± 0.97%
- GLOBULIN (%) α1 ([2]; 100 mg/Kg/die oral): 7.2 ± 0.36%
- GLOBULIN (%) α2 ([2]; 100 mg/Kg/die oral): 6.2 ± 0.38%
- GLOBULIN (%) β1 ([2]; 100 mg/Kg/die oral): 11.7 ± 0.30%
- GLOBULIN (%) β2 ([2]; 100 mg/Kg/die oral): 5.7 ± 0.45%
- GLOBULIN (%) γ ([2]; 100 mg/Kg/die oral): 2.0 ± 0.31%
- Hematocrit ([2]; 100 mg/Kg/die oral): 46.1 ± 0.6
- Red Cells ([2]; 100 mg/Kg/die oral): 5,912.600 ± 1.434 × mm^3
- VES ([2]; 100 mg/Kg/die oral): 0.9 ± 0.1
- Σ Diameter D + S, Area [2, 14]: 2,602.0
- Σ Volume D + S, Area [2, 14]: 15,652
- Σ Diameter D + S, % inhibition ([2]; both paws, 100 mg/Kg/die oral): 71.08%
- Σ Volume D + S, % inhibition ([2]; both paws, 100 mg/Kg/die oral): 47.76%
- activity in adjuvant arthritis (in words) ([2]; oral, 45 consecutive days, 6 days per week): essentially analogous to that of ibuprofen
- Suprarenal ([2]; weight, 100 mg/Kg/die oral): 64.5 ± 3.3 mg
- Thymus ([2]; weight, 100 mg/Kg/die oral): 422.3 ± 19.1 mg
- % inhibition with respect to the controls ([3]; area, oral every 24 hours, dose AFP 802 115, ibuprofen 60): 44.10%
- inhibition of the inflammation (in words) ([3]; equimolar oral doses): inhibits the inflammation to a substantial extent with values which overlap with the values obtained in the case of ibuprofen
- Area (area under the curve of the increase of the diameter of the articulations) ([3]; oral every 24 hours, dose AFP 802 115, ibuprofen 60): 9799.5 mm^2
- Average volume of the paw ([4]; 0 hours): 22.6
- Average volume of the paw ([4]; 1 hour): 27.9
- Average volume of the paw ([4]; 2 hours): 28.6
- Average volume of the paw ([4]; 3 hours): 28.4
- Average volume of the paw ([4]; 4 hours): 28.9
- Average volume of the paw ([4]; 5 hours): 29.6
- % inhibition vs control ([4]; area): 60.4%
- Area Absolute Value [4]: 119.3
- ratio of the organ to the plasma for ibuprofen concentrations (in words) ([5]; kidney): lower in the case of kidney
- ratio of the organ to the plasma for ibuprofen concentrations (in words) ([5]; liver, lungs and uterus): higher in the case of liver, lungs and uterus
- % INHIBITION WITH RESPECT TO THE CONTROL, I ([6]; area, inflamed paw, 100 mg/Kg oral): 110.89%
- % INHIBITION WITH RESPECT TO THE CONTROL, NI ([6]; area, not inflamed paw, 100 mg/Kg oral): 46.93%
- AREA ABSOLUTE VALUE, I ([6]; inflamed paw, area of the increase of the pressure tolerated, 100 mg/Kg oral): 11.7 ± 22.1
- activity expressed in percent of inhibition of the area (in words) ([6]; limb in which no injections have been made): fair, lower than the activity of ibuprofen
- activity expressed in percent of inhibition of the area (in words) ([6]; limbs affected by edema): high, superior to the activity of ibuprofen
- AREA ABSOLUTE VALUE, NI ([6]; not inflamed paw, area of the increase of the pressure tolerated, 100 mg/Kg oral): -61.20 ± 16.39
- % inhibition with respect to the control ([7]; 100 mg/Kg oral): 78.2%
- No. of Contorsions ([7]; 100 mg/Kg oral): 4.5
- % inhibition with respect to the control ([7]; 200 mg/Kg oral): 89.1%
- No. of Contorsions ([7]; 200 mg/Kg oral): 2.3
- analgesic activity compared with ibuprofen (in words) ([7]; equal weight, oral): equal activity of the two products
- Number of leucocytes × 1,000 ([8]; 5 hours): 4,804 × 1,000
- Volume of exudate in cc ([8]; 5 hours): 0.56 cc
- Number of leucocytes, % inhibition with respect to the controls ([8]; 5 hours, 100 mg/kg): 71.80% and 72%
- Volume of exudate, % inhibition with respect to the controls ([8]; 5 hours, 100 mg/kg): 43.43% and 43%
- effect in pleuritis compared with ibuprofen (in words) ([8]; 5 hours, equal doses by weight): analogous to the values obtained by administration of equal doses by weight of ibuprofen
- effect in pleuritis (in words) ([8]; 24 hours after the administration): practically unchanged
- Number of leucocytes × 1,000 ([8]; 24 hours): 7,676 × 1,000
- Number of leucocytes, % inhibition with respect to the controls ([8]; 24 hours): 58.05%
- Volume of exudate in cc ([8]; 24 hours): 0.47 cc
- Volume of exudate, % inhibition with respect to the controls ([8]; 24 hours): 48.91%
- presence in the blood fluid (in words) ([9]; 15 minutes and 30 minutes after oral 200 mg/kg): presence already after a short period of time in the blood fluid
- area under the curve of the plasma levels of ibuprofen (AUC) (in words) ([9]; AFP 802 200 mg/kg vs ibuprofen 100 mg/kg, oral): substantially similar in the administration of the two substances
- plasma levels of ibuprofen over time (in words) ([9]; ibuprofen after AFP 802 vs ibuprofen in equimolar doses): substantially latent with respect to ibuprofen in equimolar doses
- time when ibuprofen (active metabolite) begins to appear in the blood (in words) ([9]; ibuprofen after oral AFP 802 200 mg/kg): the first hour which is the time when ibuprofen, which is its active metabolite, begins to appear
- bioavailability by the oral route (in words) ([9]; oral 200 mg/kg): readily bioavailability by the oral route
- presence in the blood after the first hour (in words) ([9]; oral 200 mg/kg): found in the blood even after the first hour
- LD50 ([10]; ip, intraperitoneal route): 193 mg/kg
- LD50 ([10]; oral route): > 4000 mg/kg
- LD50 ([11]; ip, intraperitoneal route): 1750 mg/kg
- LD50 ([11]; oral route): > 4000 mg/kg
- DL50 compared with ibuprofen (in words) [12]: more favorable than ibuprofen particularly by the oral route
- % inhibition with respect to control ([13]; 100 mg/Kg oral): 86.12%
- Rectal temperature ([13]; 1 hour after treatment, 100 mg/Kg oral): 38.22 °C
- Rectal temperature ([13]; 2 hours after treatment, 100 mg/Kg oral): 37.75 °C
- Rectal temperature ([13]; 3 hours after treatment, 100 mg/Kg oral): 37.51 °C
- Rectal temperature ([13]; 4 hours after treatment, 100 mg/Kg oral): 37.16 °C
- Rectal temperature ([13]; 5 hours after treatment, 100 mg/Kg oral): 37.04 °C
- Rectal temperature ([13]; Basal, 100 mg/Kg oral group): 38.73 °C
- antipyretic activity compared with ibuprofen (in words) ([13]; equal dose, oral): only slightly inferior to the activity of an equal dose of ibuprofen
- duration of action compared with ibuprofen (in words) ([13]; rat, in vivo): longer duration of action
